Laboratory results: the NIST ThermoML archive (doi:10.1016/j.fluid.2016.08.002)

Assay: xn = mol fraction of the nth substance listed
Settings: Gas, Vibrating tube method

S [hydrogen sulfide] + C
Settings | mass density [kg/m3]
253.4 K, 9215 kPa, x2 = 0.8685 | 128.92
253.4 K, 9484 kPa, x2 = 0.8685 | 135.48
253.41 K, 10167 kPa, x2 = 0.8685 | 150.17
253.42 K, 10405 kPa, x2 = 0.8685 | 155.11
253.42 K, 10879 kPa, x2 = 0.8685 | 164.94
253.42 K, 11161 kPa, x2 = 0.8685 | 170.62
253.43 K, 9711 kPa, x2 = 0.8685 | 140.67
253.43 K, 9944 kPa, x2 = 0.8685 | 145.46
253.44 K, 10674 kPa, x2 = 0.8685 | 160.71
253.45 K, 11408 kPa, x2 = 0.8685 | 175.6
253.45 K, 12503 kPa, x2 = 0.8685 | 195.9
253.46 K, 11691 kPa, x2 = 0.8685 | 181.06
253.46 K, 11951 kPa, x2 = 0.8685 | 186.09
253.46 K, 12221 kPa, x2 = 0.8685 | 190.99
253.46 K, 12710 kPa, x2 = 0.8685 | 199.55
253.47 K, 13026 kPa, x2 = 0.8685 | 204.72
253.48 K, 13361 kPa, x2 = 0.8685 | 209.99
253.49 K, 13557 kPa, x2 = 0.8685 | 213.18
253.5 K, 13904 kPa, x2 = 0.8685 | 217.77
253.53 K, 14217 kPa, x2 = 0.8685 | 222.31
253.53 K, 14605 kPa, x2 = 0.8685 | 227.86
253.53 K, 27036 kPa, x2 = 0.8685 | 316.4
253.54 K, 15328 kPa, x2 = 0.8685 | 236.23
253.56 K, 16209 kPa, x2 = 0.8685 | 246.09
253.56 K, 23487 kPa, x2 = 0.8685 | 300.68
253.57 K, 26154 kPa, x2 = 0.8685 | 313.25
253.58 K, 16612 kPa, x2 = 0.8685 | 250.04
253.59 K, 17129 kPa, x2 = 0.8685 | 255.23
253.6 K, 17589 kPa, x2 = 0.8685 | 259.35
253.61 K, 18036 kPa, x2 = 0.8685 | 263.28
253.61 K, 18480 kPa, x2 = 0.8685 | 267.15
253.62 K, 18822 kPa, x2 = 0.8685 | 269.8
253.63 K, 19390 kPa, x2 = 0.8685 | 274.47
253.64 K, 19853 kPa, x2 = 0.8685 | 277.53
253.66 K, 21081 kPa, x2 = 0.8685 | 286.3
253.66 K, 21605 kPa, x2 = 0.8685 | 289.87
253.67 K, 22087 kPa, x2 = 0.8685 | 292.82
253.68 K, 22512 kPa, x2 = 0.8685 | 295.31
253.68 K, 22918 kPa, x2 = 0.8685 | 297.52
253.72 K, 26573 kPa, x2 = 0.8685 | 314.9
272.97 K, 448 kPa, x2 = 0.714 | 4.32
272.98 K, 925 kPa, x2 = 0.714 | 9.1
272.98 K, 1959 kPa, x2 = 0.714 | 21.08
272.99 K, 1499 kPa, x2 = 0.714 | 15.62
272.99 K, 2470 kPa, x2 = 0.714 | 27.39
272.99 K, 15974 kPa, x2 = 0.714 | 304.94
272.99 K, 16531 kPa, x2 = 0.714 | 310.78
273 K, 5009 kPa, x2 = 0.714 | 66.37
273 K, 13055 kPa, x2 = 0.714 | 265.48
273 K, 13551 kPa, x2 = 0.714 | 273.7
273 K, 14019 kPa, x2 = 0.714 | 280.64
273 K, 14532 kPa, x2 = 0.714 | 287.5
273 K, 15457 kPa, x2 = 0.714 | 298.99
273.01 K, 12511 kPa, x2 = 0.714 | 252.68
273.01 K, 14977 kPa, x2 = 0.714 | 293.17
273.02 K, 4006 kPa, x2 = 0.714 | 49.21
273.02 K, 4495 kPa, x2 = 0.714 | 57.7
273.02 K, 5020 kPa, x2 = 0.8197 | 51.69
273.03 K, 5418 kPa, x2 = 0.714 | 73.5
273.03 K, 16977 kPa, x2 = 0.714 | 315.19
273.03 K, 29571 kPa, x2 = 0.714 | 387.72
273.03 K, 30070 kPa, x2 = 0.714 | 389.49
273.04 K, 220 kPa, x2 = 0.8197 | 1.87
273.04 K, 5526 kPa, x2 = 0.8197 | 58.55
273.05 K, 512 kPa, x2 = 0.8197 | 4.39
273.05 K, 6060 kPa, x2 = 0.8197 | 66.2
